In PMC12587545, “Noncytotoxic polymyxin derivatives enhance antibiotic action against multidrug-resistant Gram-negative bacteria” (Antimicrobial Agents and Chemotherapy, 2025):
“And” between values parts separate entries of the source, which are not always exact repeats. Equal values may be shown once.

Tests used:
E. coli = experiment: Checkerboard assay (antibiotic potentiation); format: cell-based, Escherichia coli; settings: for MICantibiotic + compound: antibiotic MIC with 8 µg/mL (5 µM) compound 1; for MICantibiotic: antibiotic alone; for Potentiation: of antibiotic by 8 µg/mL (5 µM) compound 1
Protocol: (§1) The interaction between the compounds and the antibiotics was evaluated using the fractional inhibitory concentration (FIC) index. FIC indices of ≤0.5 is synergistic, 0.5 < × ≤ 4 is additive, whereas >4 is antagonistic ([34]).
(§2) Synergy was measured by the FIC index, which is the summation of the individual FICs of the antibiotic and the compound. The FIC is calculated by dividing the MIC of one agent in the presence of another by the MIC of the agent alone. […] The FBS studies were conducted by following a previously published protocol ([29], [50]). The FBS was inactivated by heating at 56°C for 30 min with constant swirling.

[1] = system: MDR Gram-negative bacteria clinical isolates; experiment: Checkerboard assay, summary over strains; format: cell-based; settings: of all 14 clinical isolates; number (%)
Protocol: as §1
(§3) The antibiotic and compounds were serially diluted 2-fold in CAMHB along the x- and y-axis, respectively, on a 96-well plate that was subsequently incubated with equal volumes of bacterial inoculum overnight at 37°C. Wells containing only media were used as negative controls, and wells containing only bacteria were used as positive controls. Synergy was measured by the FIC index, which is the summation of the individual FICs of the antibiotic and the compound. The FIC is calculated by dividing the MIC of one agent in the presence of another by the MIC of the agent alone. Turbidity was confirmed with a Molecular Devices (United States) EMax Plus microplate reader at a wavelength of 590 nm. The FBS studies were conducted by following a previously published protocol ([29], [50]). The FBS was inactivated by heating at 56°C for 30 min with constant swirling.

A. baumannii = experiment: Checkerboard assay (antibiotic potentiation); format: cell-based, Acinetobacter baumannii; design: key to FIC index: sum of FICs; ≤0.5 synergistic, 0.5–4 additive, >4 antagonistic; settings: for MICantibiotic: antibiotic alone
P. aeruginosa = experiment: Checkerboard assay (antibiotic potentiation); format: cell-based, Pseudomonas aeruginosa; settings: for MICantibiotic: antibiotic alone
E. cloacae = experiment: Checkerboard assay (antibiotic potentiation); format: cell-based, Enterobacter cloacae; settings: E. cloacae 121887 (colistin-resistant)
Protocol: The interaction between the compounds and the antibiotics was evaluated using the fractional inhibitory concentration (FIC) index. FIC indices of ≤0.5 is synergistic, 0.5 < × ≤ 4 is additive, whereas >4 is antagonistic ([34]). […] .
The bacterial isolates were acquired from ATCC or the Canadian Ward Surveillance (CANWARD) study ([56]). CANWARD isolates were collected from infected patients admitted to participating medical centers across Canada.
as §3

K. pneumoniae = experiment: Checkerboard assay (antibiotic potentiation); format: cell-based, Klebsiella pneumoniae; settings: for Interpretation: antibiotic + compound 1; for MICantibiotic + compound: antibiotic MIC with 8 µg/mL (5 µM) compound 1; for MICantibiotic: antibiotic alone; for Potentiation: of antibiotic by 8 µg/mL (5 µM) compound 1
Protocol: as §1, §2

[2] = E. coli 94393 (colistin-resistant)
[3] = E. coli 94474 (colistin-resistant)
[4] = A. baumannii 110193, antibiotic + compound 1
[5] = A. baumannii ATCC 17978, antibiotic + compound 1
[6] = P. aeruginosa 262-101856, antibiotic + compound 1
[7] = K. pneumoniae 113250 (colistin-resistant)

In the case of C[C@H]1COc2c(N3CCN(C)CC3)c(F)cc3c(=O)c(C(=O)O)cn1c23 [Levofloxacin], the FIC index (E. coli; E. coli 94393 (colistin-resistant), antibiotic + compound 1) is reported as “x < 0.563”, the “MICantibiotic + compound” value (E. coli; [2]) is reported as 1 µg/mL and the MICantibiotic (E. coli; [2]) is reported as over 2 µg/mL. For the same compound, the Potentiation (E. coli; [2]) was ≥4-fold, the Interpretation (E. coli; E. coli 94474 (colistin-resistant), antibiotic + compound 1) was “Additive (0.5 < × ≤ 4 is additive)” and the “MICantibiotic + compound” value (E. coli; [3]) was 8 µg/mL. The MICantibiotic (E. coli; [3]) was 16 µg/mL, the Potentiation (E. coli; [3]) was 2 fold and the “clinical isolates in which the antibiotic was synergized by compound 1” value [1] was 5 (36%) strains. The Interpretation (A. baumannii; A. baumannii 92247 (colistin-resistant), antibiotic + compound 1) was “Additive (0.5 < × ≤ 4 is additive)”, the “MICantibiotic + compound” value (A. baumannii; A. baumannii 92247 (colistin-resistant), antibiotic MIC with 4 µg/mL (2 µM) compound 1) was 0.063 µg/mL and the MICantibiotic (A. baumannii; A. baumannii 92247 (colistin-resistant)) was 0.063 µg/mL. The Potentiation (A. baumannii; A. baumannii 92247 (colistin-resistant), of antibiotic by 4 µg/mL (2 µM) compound 1) was 1 fold, the FIC index (A. baumannii; [4]) was 1.125 and the Interpretation (A. baumannii; [4]) was “Additive (0.5 < × ≤ 4 is additive)”. The “MICantibiotic + compound” value (A. baumannii; A. baumannii 110193, antibiotic MIC with 4 µg/mL (2 µM) compound 1) was 0.25 µg/mL, the MICantibiotic (A. baumannii; A. baumannii 110193) was 0.25 µg/mL and the Potentiation (A. baumannii; A. baumannii 110193, of antibiotic by 4 µg/mL (2 µM) compound 1) was 1 fold. For the same compound, the Interpretation (A. baumannii; A. baumannii AB027, antibiotic + compound 1) was “Additive (0.5 < × ≤ 4 is additive)”, the “MICantibiotic + compound” value (A. baumannii; A. baumannii AB027, antibiotic MIC with 4 µg/mL (2 µM) compound 1) was 4 µg/mL and the MICantibiotic (A. baumannii; A. baumannii AB027) was 8 µg/mL. The Potentiation (A. baumannii; A. baumannii AB027, of antibiotic by 4 µg/mL (2 µM) compound 1) was 2 fold, the Interpretation (A. baumannii; A. baumannii AB031, antibiotic + compound 1) was “Additive (0.5 < × ≤ 4 is additive)” and the “MICantibiotic + compound” value (A. baumannii; A. baumannii AB031, antibiotic MIC with 4 µg/mL (2 µM) compound 1) was 0.125 µg/mL. It also gave an MICantibiotic (A. baumannii; A. baumannii AB031) of 0.25 µg/mL, a Potentiation (A. baumannii; A. baumannii AB031, of antibiotic by 4 µg/mL (2 µM) compound 1) of 2 fold and an FIC index (A. baumannii; [5]) of 0.650. For the same compound, the Interpretation (A. baumannii; [5]) was “Additive (0.5 < × ≤ 4 is additive)”, the Interpretation (A. baumannii; A. baumannii ATCC 17978, antibiotic + compound 3) was “Additive (0.5 < × ≤ 4 is additive)” and the “MICantibiotic + compound” value (A. baumannii; A. baumannii ATCC 17978, antibiotic MIC with 8 µg/mL (5 µM) compound 3) was 0.125 µg/mL. For the same compound, the “MICantibiotic + compound” value (A. baumannii; A. baumannii ATCC 17978, antibiotic MIC with ¼ MIC (≤5 µM) of compound 1) was 0.063 µg/mL, the MICantibiotic (A. baumannii; A. baumannii ATCC 17978) was 0.125 µg/mL and the Potentiation (A. baumannii; A. baumannii ATCC 17978, of antibiotic by 8 µg/mL (5 µM) compound 3) was 1 fold. For the same compound, the Potentiation (A. baumannii; A. baumannii ATCC 17978, of antibiotic by ¼ MIC (≤5 µM) of compound 1) was 2 fold, the Interpretation (P. aeruginosa; P. aeruginosa 259-96916, antibiotic + compound 1) was “Synergy (FIC indices of ≤0.5 is synergistic)” and the “MICantibiotic + compound” value (P. aeruginosa; P. aeruginosa 259-96916, antibiotic MIC with 8 µg/mL (5 µM) compound 1) was 16 µg/mL. The MICantibiotic (P. aeruginosa; P. aeruginosa 259-96916) was 512 µg/mL, the Potentiation (P. aeruginosa; P. aeruginosa 259-96916, of antibiotic by 8 µg/mL (5 µM) compound 1) was 32 fold and the FIC index (P. aeruginosa; [6]) was “x < 0.125”. For the same compound, the Interpretation (P. aeruginosa; [6]) was “Synergy (FIC indices of ≤0.5 is synergistic)”, the “MICantibiotic + compound” value (P. aeruginosa; P. aeruginosa 262-101856, antibiotic MIC with 8 µg/mL (5 µM) compound 1) was 4 µg/mL and the MICantibiotic (P. aeruginosa; P. aeruginosa 262-101856) was over 64 µg/mL. The Potentiation (P. aeruginosa; P. aeruginosa 262-101856, of antibiotic by 8 µg/mL (5 µM) compound 1) was ≥32-fold, the Interpretation (P. aeruginosa; P. aeruginosa 264-105354, antibiotic + compound 1) was “Synergy (FIC indices of ≤0.5 is synergistic)” and the “MICantibiotic + compound” value (P. aeruginosa; P. aeruginosa 264-105354, antibiotic MIC with 8 µg/mL (5 µM) compound 1) was 4 µg/mL. The MICantibiotic (P. aeruginosa; P. aeruginosa 264-105354) was 64 µg/mL, the Potentiation (P. aeruginosa; P. aeruginosa 264-105354, of antibiotic by 8 µg/mL (5 µM) compound 1) was 16 fold and the Interpretation (P. aeruginosa; P. aeruginosa 101243 (colistin-resistant), antibiotic + compound 1) was “Synergy (FIC indices of ≤0.5 is synergistic)”. The “MICantibiotic + compound” value (P. aeruginosa; P. aeruginosa 101243 (colistin-resistant), antibiotic MIC with 8 µg/mL (5 µM) compound 1) was 16 µg/mL, the MICantibiotic (P. aeruginosa; P. aeruginosa 101243 (colistin-resistant)) was 128 µg/mL and the Potentiation (P. aeruginosa; P. aeruginosa 101243 (colistin-resistant), of antibiotic by 8 µg/mL (5 µM) compound 1) was 8 fold. For the same compound, the Interpretation (P. aeruginosa; P. aeruginosa 114228 (colistin-resistant), antibiotic + compound 1) was “Additive (0.5 < × ≤ 4 is additive)”, the “MICantibiotic + compound” value (P. aeruginosa; P. aeruginosa 114228 (colistin-resistant), antibiotic MIC with 8 µg/mL (5 µM) compound 1) was 2 µg/mL and the MICantibiotic (P. aeruginosa; P. aeruginosa 114228 (colistin-resistant)) was 2 µg/mL. The Potentiation (P. aeruginosa; P. aeruginosa 114228 (colistin-resistant), of antibiotic by 8 µg/mL (5 µM) compound 1) was 1 fold, the Interpretation (P. aeruginosa; P. aeruginosa PAO1, antibiotic + compound 1) was “Synergy (FIC indices of ≤0.5 is synergistic)” and the Interpretation (P. aeruginosa; P. aeruginosa PAO1, antibiotic + compound 3) was “Additive (0.5 < × ≤ 4 is additive)”. For the same compound, the “MICantibiotic + compound” value (P. aeruginosa; P. aeruginosa PAO1, antibiotic MIC with 8 µg/mL (5 µM) compound 1) was 0.125 µg/mL, the “MICantibiotic + compound” value (P. aeruginosa; P. aeruginosa PAO1, antibiotic MIC with 8 µg/mL (5 µM) compound 3) was 1 µg/mL and the MICantibiotic (P. aeruginosa; P. aeruginosa PAO1) was 1 µg/mL and 0.5 µg/mL. The Potentiation (P. aeruginosa; P. aeruginosa PAO1, of antibiotic by 8 µg/mL (5 µM) compound 1) was 4 fold, the Potentiation (P. aeruginosa; P. aeruginosa PAO1, of antibiotic by 8 µg/mL (5 µM) compound 3) was 1 fold and the Interpretation (E. cloacae; antibiotic + compound 1) was “Additive (0.5 < × ≤ 4 is additive)”. For the same compound, the “MICantibiotic + compound” value (E. cloacae; antibiotic MIC with 8 µg/mL (5 µM) compound 1) was 16 µg/mL, the MICantibiotic (E. cloacae; antibiotic alone) was 16 µg/mL and the Potentiation (E. cloacae; of antibiotic by 8 µg/mL (5 µM) compound 1) was 1 fold. For the same compound, the Interpretation (K. pneumoniae; [7]) was “Additive (0.5 < × ≤ 4 is additive)”, the “MICantibiotic + compound” value (K. pneumoniae; [7]) was 0.063 µg/mL and the MICantibiotic (K. pneumoniae; [7]) was 0.063 µg/mL. For the same compound, the Potentiation (K. pneumoniae; [7]) was 1 fold, the Interpretation (K. pneumoniae; K. pneumoniae 116381) was “Synergy (FIC indices of ≤0.5 is synergistic)” and the “MICantibiotic + compound” value (K. pneumoniae; K. pneumoniae 116381) was 4 µg/mL. The MICantibiotic (K. pneumoniae; K. pneumoniae 116381) was 256 µg/mL and the Potentiation (K. pneumoniae; K. pneumoniae 116381) was 64 fold.
